From patent publication US11472846B2, “Compositions and methods for treating diseases by inhibiting exosome release” (priority 2016, dated 2022)

Experiments:
Type in all cases: cell-based, human
[1] = system: MCF-7 breast cancer cells; experiment: Exosome release by acetylcholinesterase (AchE) assay, MCF-7; conditions: for average AChE concentration days 1 to 5: MCF-7 cells, five-day treatment
Description: 1-6. Exosome isolation and purification. Exosomes were isolated from breast cancer cells by differential centrifugation as previously described (Ali SA. et al., 2010). Untreated tumor cells were used as a control. Briefly, the above treated and untreated cell culture supernatants were centrifuged at 400×g for 10 minutes. The supernatants were transferred to a clear tube and centrifuged at 10,000×g for 30 minutes. The supernatants from the second spin were ultracentrifuged at 200,000×g for 2 hours to pellet exosomes. Finally, the exosome pellets were re-suspended with PBS and stored at 4° C. until used for analysis.
1-7. Exosome characterization by acetylcholinesterase (AchE) assay. Purified exosomes were quantitated by measurement of AchE as described (Ellman et al., 1961). Briefly, a 100 mM dithibionitrobenzoic (DTNB) solution was prepared for use as a stock color indicator, and a 28.9 mg/mL acetylthiocholine iodide in PBS solution was prepared as a stock substrate. The stock substrate stock can be stored at −20° C. up to one month, while the color indicator can be stored at 4° C. for two weeks. A working solution was prepared by mixing 10 mL of PBS with 200 μL of Substrate and 500 μl of DTNB. 50 μL of each exosome sample was transferred to 96 well microtitre plates, and a standard curve was prepared using AchE from 0.98 mU/mL to 2000 mU/mL. After 50 μL of standards were added into separate wells, 200 μL of the working solution was added to all wells. After 20 min incubation, AchE activity was measured at 450 nm using a SpectroMax M5 fluorimeter.
7-5. Exosome isolation and purification. Exosomes were isolated from breast cancer cells and leukemia cells using the ExoQuick-TC Exosome Precipitation Kit (System Biosciencences [SBI], Mountain View Calif.) or the miRCURY Exosome Isolation Kit (EXIQON, Woburn, Mass.) according to the manufacturer's instructions. Untreated tumor cells were used as a control. Briefly, treated and untreated cell culture supernatants (10 mL) were centrifuged at 3000×g for 15 minutes. The resulting supernatants were transferred to a clear tube, 2 mL of ExoQuick-TC buffer was added, mixed and incubated overnight at 4° C. Following the incubation, the sample contents were centrifuged at 1500×g for 30 minutes, the supernatants were aspirated off, the pellets were centrifuged at 1500×g for 5 minutes and any further traces of supernatant were removed (SBI). Alternatively, treated and untreated cell culture supernatants were centrifuged at 10,000×g for 5 minutes to remove cell debris, supernatants (10 ml) were transferred into new tubes, and 4 mL of precipitation buffer (EXIQON) was added, and the contents were mixed and incubated at 4° C. overnight. Following the incubation, the sample contents were centrifuged at 10,000×g for 30 minutes (EXIQON). Exosome-containing pellets were re-suspended in PBS and stored at 4° C. or −80° C.
7-6. Exosome characterization by acetylcholinesterase (AchE) assay. Purified exosomes were quantitated by measurement of AchE as previously described (Huang et al., Oncotarget, 2017. 8(7): pp. 11302-11315). Briefly, 100 mM dithibionitrobenzoic (DTNB) was prepared as a stock color indicator, and prepared a stock substrate containing 28.9 mg/mL of acetylthiocholine iodide in PBS. Substrate stock can be stored at −20° C. up to one month; the stock color indicator can be stored at 4° C. for two weeks. A working solution was prepared by mixing 10 mL of PBS with 200 μL of substrate and 500 μl of DTNB. 50 μL of each exosome sample was transferred to a 96 well microtitre plate, and a standard curve for AchE concentrations was prepared using AchE from 0.98 mU/mL to 2000 mU/mL. After 50 μL of standards were added into separate wells, 200 μL of the working solution was added to each well. After a 20 min incubation, AchE activity was measured at 450 nm using a SpectroMax M5 fluorometer (FIG. 11).

[2] = system: exosomes from MCF-7 cells; experiment: Western blot of exosomal proteins (Alix, vimentin, mortalin), MCF-7; conditions: 48 hr treatment, vs negative controls
Description: (§1) 7-7. Protein analysis by Western blotting. Exosomes were isolated from cell culture supernatants as described above. Protein concentrations were determined by measuring absorbance at 280 nm (Nanodrop 2000). Cultured cells were treated with PEG-SMR-Clu, SMR-CPP peptides, MKT-077, Omeprazole or DMA at 37° C. for 48 hr. To evaluate mortalin, vimentin and exosome expression, Western blot analysis was performed using anti-mortalin (Grp-75), anti-Vimentin and anti-Alix antibodies, respectively (FIG. 12).
(§2) Exosomes and cell lysates were prepared by incubating 5-10 min at 95° C. in sample buffer. The lysates were subjected to SDS-PAGE under reducing conditions (150 mM DTT) in 4-20% Criterion™ TGX™ precast gels (BioRad, Hercules, Calif.) and then transferred onto a nitrocellulose membrane (Bio-Rad, Hercules, Calif.). Nitrocellulose membranes were blocked with 5% skim milk (MedSupply, Atlanta, Ga.) in TBS containing 0.05% Tween 20 (TBST) for 1 h at room temperature. The membranes were treated with anti-mortalin (Grp-75) mAb or anti-α-tubulin mAb for cell lysates (FIG. 15, Panels A and B) or with anti-Alix and anti-vimentin or anti-mortalin for exosomes (FIG. 12), followed by peroxidase-conjugated goat anti-mouse IgG. Bands were developed with an ECL chemiluminescent substrate (Santa Cruz Biotechnology, Santa Cruz, Calif.) and exposed to an ImageQuant LAS 4000 imaging system (GE Healthcare, Piscataway, N.J. 08854).

[3] = system: MDA-MB-231 exosomes; experiment: Western blot of exosomal proteins (Alix, vimentin, mortalin), MDA-MB-231; conditions: MDA-MB-231 cells, 48 hr treatment
Description: as §1, §2

[4] = system: MDA-MB-231 breast cancer cells; experiment: InnoCyte cell migration assay, MDA-MB-231; conditions: MDA-MB-231 cells, 280 nM SMR peptide or 3 μM Latrunculin A, 24 hours
Description: 7-12. Cell migration assay. Cell migration assays were performed using the InnoCyte Cell Migration Assay (EMD Millipore Corporation, Temecula, Calif.) according to the manufacturer's instructions. Briefly, cell migration was monitored in the presence and absence of SMRwt peptides or latrunculin A (positive control inhibitor), which were added to the lower chamber of a 96-well plate. MCF-7 and MDA-MB-231 breast cancer cells and non-tumorigenic MCF-10A breast cells were harvested by 0.25% Trypsin-EDTA (Life Technologies) release and resuspended at 250,000500,000 cells/ml in serum-free RPMI 1640 media. A total of 25,000-50,000 cells was added to the upper chamber and allowed to migrate through an 8-μm pore-size membrane for 24 hours at 37° C. in a 5% CO2 atmosphere. Cells that migrated through the membrane were detached and labeled with Calcein-AM fluorescent dye. Fluorescence was measured using a Fluorescence Plate Reader (Molecular Devices, Sunnyvale, Calif.) with an excitation wavelength of 485 nm and an emission wavelength of 515 nm. The experiment was repeated in triplicate, and each conditioned experiment was performed in quadruplicate.

Sequence	AchE activity in exosomes ([1]; MCF-7 cells treated 48 hr, control exosomes 113.49 mU/mL)	average AChE concentration days 1 to 5 [1]	Alix expression in exosomes [2]	Mortalin expression in exosomes [2]	Vimentin expression in exosomes [2]	Alix expression in exosomes [3]	Mortalin expression in exosomes [3]	Vimentin expression in exosomes [3]	reduced migration by [4]
NXNVGFPVAAVGFPVHPLSKHPYWSQP (SEQ ID NO: 37) [PEG-SMRwt-Clu]	41.95 mU/mL	31 mU/mL	significantly decreased	significantly decreased	significantly decreased	significantly decreased	significantly decreased	significantly decreased	52.37%
VGFPVAAVGFPVGRKKRRQRRRPPQ [SMRwt-CPP]		22 mU/mL	significantly decreased	no significant changes	significantly decreased	significantly decreased	significantly decreased	significantly decreased	46.39%
